Test results published in patent publication US8278337B2, “Substituted pyridines that are JNK inhibitors” (Merck Sharp & Dohme, priority 2006, dated 2012).
Values joined by “and” are separate entries in the source; they are usually repeats but may differ in a detail not shown here. Equal entries are not always repeated.

target: JNK1 (Homo sapiens, UniProt P45983); assay: DELFIA kinase assay, JNK1; assay type: biochemical; settings: DELFIA assay, 2 nM JNK1, 7 uM ATP, 10 min pre-incubation
Outline: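 Enzyme (2 nM JNK1) was preincubated 10 min with 0–100 μM compound in HEPES pH 7.3 with 5% DMSO, then reacted 30 min at room temperature with biotinylated GST-ATF2 (6 ug/mL). Final ATP was 7 uM for JNK1, 4 uM for JNK2 and 2 uM for JNK3. Phospho-ATF2 was detected by DELFIA europium fluorescence (ex 340, em 615 nm).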

Chain of JNK1 (P45983 whole entry, species assumed): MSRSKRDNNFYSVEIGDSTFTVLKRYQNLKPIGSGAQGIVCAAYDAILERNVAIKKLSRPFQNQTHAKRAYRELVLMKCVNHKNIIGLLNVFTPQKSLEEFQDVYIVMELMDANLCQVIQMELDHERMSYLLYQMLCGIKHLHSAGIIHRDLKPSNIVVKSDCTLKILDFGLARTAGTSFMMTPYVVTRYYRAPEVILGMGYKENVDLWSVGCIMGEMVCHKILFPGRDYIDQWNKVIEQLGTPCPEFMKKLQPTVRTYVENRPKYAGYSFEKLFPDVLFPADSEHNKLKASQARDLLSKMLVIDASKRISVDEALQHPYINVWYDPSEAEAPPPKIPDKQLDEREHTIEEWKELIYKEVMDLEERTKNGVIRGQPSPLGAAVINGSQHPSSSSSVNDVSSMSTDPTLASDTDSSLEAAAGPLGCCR

Compound	IC50 [µM]
Cc1nc2ccc(-n3cc(CNC(=O)c4cccc(C(=O)NC(C)C)n4)cn3)cc2n1C(C)C [Compound 228]	0.008

same assay, conditions: DELFIA assay, 2 nM JNK1, 7 uM ATP, 10 min pre-incubation; second table; read-out: JNK 1 IC50

Compound	IC50 [µM]
CC(C)NC(=O)c1cccc(C(=O)NCc2cnn(-c3ccc(S(N)(=O)=O)cc3)c2)n1 [Compound 241]	0.007
Cc1nc2ccc(-n3cc(CNC(=O)c4cccc(C(=O)NC(C)C)n4)cn3)cc2n1C(C)C [Compound 228]	0.008
CC(C)NC(=O)c1cccc(C(=O)NCc2cnn(-c3cnc4ccccc4c3)c2)n1 [Compound 144]	0.007

same assay, conditions: DELFIA, biotinylated GST-ATF2 substrate, 10 minute pre-incubation, final ATP 7 uM

Compound	IC50
CC[C@@H](C)NC(=O)c1cccc(C(=O)NCc2ccc3nc(N)sc3c2)n1 [Compound 8]	0.004 to 0.097 µM
C[C@@H](CO)NC(=O)c1cc(-c2ccccc2)cc(C(=O)NCc2ccc(S(C)(=O)=O)cc2)n1 [Compound 407]	> 1 µM and 1.03 to 10 µM
C[C@H](CO)NC(=O)c1cc(-c2cccs2)cc(C(=O)NCc2ccc(S(C)(=O)=O)cc2)n1 [Compound 417]	> 1 µM and 1.03 to 10 µM
Nc1nc2ccc(CNC(=O)c3cccc(C(=O)N[C@@H](CO)c4ccccc4)n3)cc2s1 [Compound 54]	> 1 µM and 1.03 to 10 µM
CC(C)NC(=O)c1cccc(C(=O)NNc2ccc(S(C)(=O)=O)cc2)n1 [Compound 122]	> 1 µM and 1.03 to 10 µM
CC(C)NC(=O)c1cccc(C(=O)NCc2cnn(-c3ccc(S(N)(=O)=O)cc3)c2)n1 [Compound 241]	0.004 to 0.097 µM and 0.004 to 0.019 µM
CS(=O)(=O)c1ccc(-n2cc(CNC(=O)c3cccc(-n4cc(-c5ccccn5)cn4)n3)cn2)cc1 [Compound 297]	0.004 to 0.097 µM
CCOC(=O)N1CCC(NC(=O)c2cccc(N(C)CCc3ccncc3)n2)CC1 [Compound 394]	> 1 µM
Cc1cc(NC(=O)c2cccc(C(=O)NCc3cnn(-c4ccc(S(C)(=O)=O)cc4)c3)n2)no1 [Compound 78]	0.004 to 0.097 µM
CCOC(=O)N1CCC(NC(=O)c2cccc(C(=O)NCc3ccc(C)c(F)c3)n2)CC1 [Compound 73]	> 1 µM and 1.03 to 10 µM
Nc1nc2ccc(CNC(=O)c3cccc(C(=O)NC4CCCCC4)n3)cc2s1 [Compound 12]	0.004 to 0.097 µM
CCOC(=O)Nc1nc2ccc(CNC(=O)c3cccc(C(=O)NC(C)C)n3)cc2s1 [Compound 205]	0.004 to 0.097 µM
CC(C)NC(=O)c1cc(O)cc(C(=O)NCc2cnn(-c3ccc4nccnc4c3)c2)n1 [Compound 436]	0.004 to 0.097 µM
CC(C)NC(=O)c1cccc(C(=O)NCc2cnn(-c3ccccc3Cl)c2)n1 [Compound 157]	0.102 to 0.959 µM
CCOC(=O)N1CCC(NC(=O)c2cccc(C(=O)NCCc3ccccc3)n2)CC1 [Compound 45]	> 1 µM
CC(C)CNC(=O)c1cccc(C(=O)NCc2ccc3nc(N)sc3c2)n1 [Compound 64]	> 1 µM
CNC(=S)N1CCC(NC(=O)c2cccc(C(=O)NCc3ccc(S(C)(=O)=O)cc3)n2)CC1 [Compound 57]	0.102 to 0.959 µM
CC(C)NC(=O)c1cccc(C(=O)NCc2cnn(-c3cccc(Cl)c3)c2)n1 [Compound 132]	0.004 to 0.097 µM
Nc1nc2ccc(CNC(=O)c3cccc(C(=O)N[C@H](CO)Cc4ccccc4)n3)cc2s1 [Compound 23]	0.102 to 0.959 µM
CC(C)NC(=O)c1cccc(C(=O)NCc2cnn(-c3ccc(Cl)cc3)c2)n1 [Compound 133]	0.004 to 0.097 µM

Compound	IC50
COc1ccc(-c2cccc(C(=O)NCc3ccc(S(C)(=O)=O)cc3)n2)c(F)c1 [Compound 331]	0.102 to 0.959 µM
Nc1nc2ccc(CNC(=O)c3cccc(C(=O)NC4CC4)n3)cc2s1 [Compound 48]	0.102 to 0.959 µM
CS(=O)(=O)c1ccc(CNC(=O)c2cccc(C(=O)NC3CCN(c4ccccn4)CC3)n2)cc1 [Compound 273]	0.102 to 0.959 µM
CC(C)(C)c1nnc(-c2cccc(C(=O)NCc3ccc(S(C)(=O)=O)cc3)n2)o1 [Compound 303]	> 1 µM and 1.03 to 10 µM
CC(C)NC(=O)c1cccc(C(=O)NCc2cnn(-c3cncnc3)c2)n1 [Compound 145]	0.102 to 0.959 µM
CCOC(=O)c1cccc(C(=O)NCc2ccc3nc(N)sc3c2)n1 [Compound 62]	> 1 µM
CNC(=O)c1cccc(C(=O)NCc2ccc3nc(N)sc3c2)n1 [Compound 47]	> 1 µM
CS(=O)(=O)c1ccc(CNC(=O)c2cccc(C(=O)NC3CCN(C(N)=O)CC3)n2)cc1 [Compound 55]	0.102 to 0.959 µM
CNc1nc2ccc(CNC(=O)c3cccc(C(=O)NC(C)C)n3)cc2s1 [Compound 200]	0.004 to 0.097 µM
CC(C)NC(=O)c1cccc(C(=O)Nc2ccc3nccnc3c2)n1 [Compound 91]	> 1 µM and 1.03 to 10 µM
CS(=O)(=O)c1ccc(CNC(=O)c2cccc(-n3cnc(Br)c3)n2)cc1 [Compound 327]	1.03 to 10 µM and > 1 µM
COc1cccc2ccc(C(=O)NCc3ccc(S(C)(=O)=O)cc3)nc12 [Compound 383]	0.102 to 0.959 µM
CC(C)NC(=O)c1cccc(C(=O)NCc2cnn(-c3ccccc3)c2)n1 [Compound 100]	0.004 to 0.097 µM
COC(=O)c1cccc(C2CCN(C(=O)c3cccc(C(=O)NCc4ccc5nc(N)sc5c4)n3)CC2O)c1 (stereo not drawn) [Compound 32]	> 1 µM
Cn1cc(-c2cccc(C(=O)NCc3ccc(S(C)(=O)=O)cc3)n2)cn1 [Compound 333]	> 1 µM and 1.03 to 10 µM
COc1cccc(-c2cccc(C(=O)NCc3ccc(S(C)(=O)=O)cc3)n2)c1F [Compound 330]	0.102 to 0.959 µM
CC(C)NC(=O)c1cccc(C(=O)NCc2cncc(-c3ccc(C#N)cc3)c2)n1 [Compound 257]	0.004 to 0.097 µM
Cc1nc2ccc(-n3cc(CNC(=O)c4cccc(C(=O)NC(C)C)n4)cn3)cc2n1C(C)C [Compound 228]	0.004 to 0.097 µM and 0.004 to 0.019 µM
CC(O)CNC(=O)c1cccc(C(=O)NCc2ccc3nc(N)sc3c2)n1 (stereo not drawn) [Compound 19]	> 1 µM
CCS(=O)(=O)N1CCC(NC(=O)c2cccc(C(=O)NCc3ccc(S(C)(=O)=O)cc3)n2)CC1 [Compound 60]	> 1 µM

Compound	IC50
CCOC(=O)N1CCC(NC(=O)c2cccc(Nc3ccccn3)n2)CC1 [Compound 396]	> 1 µM
CCNC(=O)c1cc(-c2cccs2)cc(C(=O)NCc2ccc(S(C)(=O)=O)cc2)n1 [Compound 415]	> 1 µM and 1.03 to 10 µM
CC(C)NC(=O)c1cccc(C(=O)NCc2cnn(-c3cc(F)cc(C#N)c3)c2)n1 [Compound 162]	0.102 to 0.959 µM
CC(C)(C)c1cnn(-c2cccc(C(=O)NCc3ccc(S(C)(=O)=O)cc3)n2)c1 [Compound 336]	0.102 to 0.959 µM
CS(=O)(=O)c1ccc(CNC(=O)c2cccc(-n3cccn3)n2)cc1 [Compound 314]	> 1 µM
CC(C)NC(=O)c1cccc(C(=O)NCc2ccc(N3CCCC3=O)cc2)n1 [Compound 120]	0.102 to 0.959 µM
CC(C)NC(=O)c1cccc(C(=O)NCc2ccc(-c3cccc(S(C)(=O)=O)c3)nc2)n1 [Compound 180]	0.102 to 0.959 µM
CC(C)NC(=O)c1cccc(C(=O)NCc2ccc(-c3cccc(Cl)c3)nc2)n1 [Compound 176]	0.102 to 0.959 µM
CC(C)NC(=O)c1cccc(C(=O)NCc2cnn(-c3cnc4ccccc4c3)c2)n1 [Compound 144]	0.004 to 0.019 µM and 0.004 to 0.097 µM
CC(C)NC(=O)c1cccc(C(=O)NCc2ccc(Cl)nc2)n1 [Compound 99]	0.102 to 0.959 µM
Cc1cccc(-n2cc(CNC(=O)c3cccc(C(=O)NC(C)C)n3)cn2)c1 [Compound 129]	0.004 to 0.097 µM and 0.004 to 0.019 µM
CC(C)NC(=O)c1cccc(C(=O)NCc2cnn(-c3cncc(F)c3)c2)n1 [Compound 153]	0.004 to 0.097 µM
Cc1cnc(CNC(=O)c2cccc(C(=O)NC(C)C)n2)cn1 [Compound 92]	> 1 µM and 1.03 to 10 µM
CCCNC(=O)c1cccc(C(=O)NCc2ccc3nc(N)sc3c2)n1 [Compound 65]	0.102 to 0.959 µM
Nc1nc2ccc(CNC(=O)c3cccc(C(=O)NCCCn4ccnc4)n3)cc2s1 [Compound 69]	0.102 to 0.959 µM
Nc1nc2ccc(CNC(=O)c3cccc(C(=O)NC4CCN(Cc5ccccc5)CC4)n3)cc2s1 [Compound 30]	> 1 µM
Cc1nc2cc(CNC(=O)c3cccc(C(=O)NC(C)C)n3)ccc2n1C [Compound 127]	0.102 to 0.959 µM
CNc1cccc(C(=O)NCc2cnn(-c3cccc(C(F)(F)F)c3)c2)n1 [Compound 362]	0.102 to 0.959 µM
CS(=O)(=O)c1ccc(CNC(=O)c2cccc(-n3cc(-c4ccccn4)cn3)n2)cc1 [Compound 334]	0.102 to 0.959 µM
